pIC50: −log10 of the molar value.
Tests used:
[1] = molecular target: T1, cloned recombinant human HDAC-1 enzyme (Homo sapiens, UniProt Q13547); assay: HDAC-1 enzymatic inhibition, Assay 1 ([3H]-acetylated histone substrate); format: biochemical; details: Assay 1: [3H]-labeled acetylated histone substrate, recombinant hHDAC-1
T1 construct: made in house; host or cells: Baculovirus insect cell expression system
Method: Assay 1. HDAC inhibitors were screened against a cloned recombinant human HDAC-1 enzyme expressed and purified from a Baculovirus insect cell expression system. For deacetylase assays, 20,000 cpm of the [^3H]-metabolically labeled acetylated histone substrate (M. Yoshida et al., J. Biol. Chem. 265(28): 17174-17179 (1990)) was incubated with 30 μg of the cloned recombinant hHDAC-1 for 10 minutes at 37° C. The reaction was stopped by adding acetic acid (0.04 M, final concentration) and HCl (250 mM, final concentration). The mixture was extracted with ethyl acetate and the released [^3H]-acetic acid was quantified by scintillation counting. For inhibition studies, the enzyme was preincubated with compounds at 4° C. for 30 minutes prior to initiation of the enzymatic assay. IC50 values for HDAC enzyme inhibitors were determined by performing dose response curves with individual compounds and determining the concentration of inhibitor producing fifty percent of the maximal inhibition.
Assay 1 was used to measure HDAC activity of compounds 10c, 13e, 16d, 26b, 44, 47, 61a, 61b, 63, 134, 138, and 308. Assay 2 was used to measure HDAC activity of compounds 361, 366, 367, 368, 369, 370, 371, 372, 373, 374, 375, 376, 377, and 378. In Table 14, “a” indicates activity of ≦0.1 μM, “b” indicates activity of ≦1 μM, “c” indicates activity of ≦5 μM, and “d” indicates activity of >5 μm. For the H4-Ac T24 EC vs. MS-275 assay in Table 14, “u” indicates less than 1, “v” indicates 1, and “w” indicates greater than 1. For the H3 Ac t24 assay in Table 14, “x” indicates activity of ≦1 μM, “y” indicates activity of ≦10 μM, and “z” indicates activity of ≦20 μM.

[2] = system: HCT116 cells; assay: MTT assay; format: cell-based; details: Homo sapiens, HCT-116, 72 hours
Method: HCT116 cells (2000/well) were plated into 96-well tissue culture plates one day before compound treatment. Compounds at various concentrations were added to the cells. The cells were incubated for 72 hours at 37° C. in 5% CO2 incubator. MTT (3-[4,5-dimethylthiazol-2-yl]-2,5diphenyl tetrazolium bromide, Sigma) was added at a final concentration of 0.5 mg/ml and incubated with the cells for 4 hours before one volume of solubilization buffer (50% N,N-dimethylformamide, 20% SDS, pH 4.7) was added onto the cultured cells. After overnight incubation, solubilized dye was quantified by colorimetric reading at 570 nM using a reference at 630 nM using an MR700 plate reader (Dynatech Laboratories Inc.). OD values were converted to cell numbers according to a standard growth curve of the relevant cell line. The concentration which reduces cell numbers to 50% of that of solvent treated cells is determined as MTT IC50. In Table 14, “a” indicates activity of ≦0.1 μM, “b” indicates activity of ≦1 μM, and “c” indicates activity of ≦5 μM.

[3] = system: Histone H4 acetylation in T24 human bladder cancer cells; assay: Histone H4 acetylation in whole cells by immunoblots; format: cell-based; details: ratio of EC50 of compound to EC50 of control MS-275, 16 h
Method: T24 human bladder cancer cells growing in culture were incubated with HDAC inhibitors for 16 h. Histones were extracted from the cells after the culture period as described by M. Yoshida et al. (J. Biol. Chem. 265(28): 17174-17179 (1990)). […] of total histone protein was loaded onto SDS/PAGE and transferred to nitrocellulose membranes. Membranes were probed with polyclonal antibodies specific for acetylated histone H-4 (Upstate Biotech Inc.), followed by horse radish peroxidase conjugated secondary antibodies (Sigma). Enhanced Chemiluminescence (ECL) (Amersham) detection was performed using Kodak films (Eastman Kodak). Acetylated H-4 signal was quantified by densitometry. Data are presented as the ratio of the concentration effective for […] the acetylated H-4 signal by 50% (EC50) using the indicated compound of the invention to a control compound, MS-275. If the indicated ratio is 1, then the compound of the invention is as effective as the MS-275 control compound. […] Further information regarding the MS-275 compound can be found in Suzuki et al., J. Med. Chem. 1999, pp. 3001-3003.

[4] = system: SW48 colon cancer cells; assay: Human tumor xenograft in vivo, SW48; details: Mus musculus, 40 mg/kg ip, mice, read-out: % Inhibition (relative to vehicle control) SW48
Method: (§1) Eight to ten week old female BCD1 mice (Taconic Labs, Great Barrington, N.Y.) were injected subcutaneously in the flank area with 2×10^6 preconditioned HCT116 human colorectal carcinoma cells, SW48 colon cancer cells, and A549 lung cancer cells. Preconditioning of these cells was done by a minimum of three consecutive tumor transplantations in the same strain of nude mice. Subsequently, tumor fragments of approximately 30 mgs were excised and implanted subcutaneously in mice, in the left flank area, under Forene anesthesia (Abbott Labs, Geneva, Switzerland). When the tumors reached a mean volume of 100 mm^3, the mice were treated intraperitoneally by daily injection, with a solution of the histone deacetylase inhibitor in DMSO, at a starting dose of 10 mg/kg. The optimal dose of the HDAC inhibitor was established by dose response experiments according to standard protocols. Tumor volume was calculated every second day post infusion according to standard methods (e.g., Meyer et al., Int. J. Cancer 43: 851-856 (1989)).

[5] = system: A549 lung cancer cells; assay: Human tumor xenograft in vivo, A549; details: mice
Method: as §1

[6] = system: HCT116 human colorectal carcinoma cells; assay: Human tumor xenograft in vivo, HCT116; details: Mus musculus, HCT-116; 30 mg/kg ip, mice; read-out: % Inhibition (relative to vehicle control) HCT116
Method: as §1

T1 sequence (Q13547 whole entry): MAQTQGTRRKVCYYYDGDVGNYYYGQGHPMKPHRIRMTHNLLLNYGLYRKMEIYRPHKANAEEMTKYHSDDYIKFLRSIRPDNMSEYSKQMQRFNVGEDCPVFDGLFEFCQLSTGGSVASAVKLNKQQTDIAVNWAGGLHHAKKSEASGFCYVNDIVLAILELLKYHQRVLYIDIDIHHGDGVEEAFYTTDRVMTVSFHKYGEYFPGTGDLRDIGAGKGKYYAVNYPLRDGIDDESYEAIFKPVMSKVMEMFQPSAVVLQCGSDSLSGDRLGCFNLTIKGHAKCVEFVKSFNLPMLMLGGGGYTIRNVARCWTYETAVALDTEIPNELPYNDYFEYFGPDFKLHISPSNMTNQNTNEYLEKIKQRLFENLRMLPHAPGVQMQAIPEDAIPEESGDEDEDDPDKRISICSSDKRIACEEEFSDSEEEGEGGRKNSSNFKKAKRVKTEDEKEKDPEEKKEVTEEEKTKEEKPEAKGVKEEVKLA

SMILES | pIC50 [1] | pIC50 [2] | H4-Ac T24 EC vs. MS-275 [3] | inhibition in vivo at 40 mg/kg [4] | % Inhibition (relative to vehicle control) A549 ([5]; 40 mg/kg ip) | inhibition in vivo at 30 mg/kg [6] | % Inhibition (relative to vehicle control) A549 ([5]; 30 mg/kg ip)
Nc1ccccc1NC(=O)c1ccc(CNc2nccc(-c3ccccn3)n2)cc1 [26b, N-(2-Amino-phenyl)-4-[(4-pyridin-2-yl-pyrimidin-2-ylamino)-methyl]-benzamide] | 5.30 to 6.00 | ≥ 7.00 | v (“v” indicates 1) | 75.1% | 74.4% |  | 
CN(C)CCOc1ccc2nc(NCc3ccc(C(=O)Nc4ccccc4N)cc3)sc2c1 [compound 138, N-(2-Amino-phenyl)-4-{[6-(2-dimethylamino-ethoxy)-benzothiazol-2-ylamino]-methyl}-benzamide] | 5.30 to 6.00 | ≥ 7.00 | u (“u” indicates less than 1) |  |  | 79.8% | 83.7%

Source: patent US8088805B2, “Inhibitors of histone deacetylase” (MethylGene Inc., priority 2004, dated 2012)
